{"source": "patent US5413915A", "about": "(priority 1991, dated 1995)", "key": {"rat liver microsomes [1]": {"test_system": "rat liver microsomes", "type": "biochemical", "set-up": "unit not given here"}, "rat liver microsomes [2]": {"test_system": "rat liver microsomes", "type": "biochemical", "set-up": "key: Positive: the development of coloration denoted a positive response; Negative: the absence of such coloration denoted a negative response"}, "[3]": {"settings": "in vivo; cited from earlier work"}, "[4]": {"settings": "in vivo; cited from earlier work", "remark": "listed apart in the source"}, "rat liver microsomes [5]": {"test_system": "rat liver microsomes", "test": "Colorimetric reactions of constituents in bi-layer film (Example 1)", "type": "biochemical", "procedure": "In order to establish the color development behavior of various constituents employed in the invention alone and in several combinations, including two selected test chemicals, seven separate bi-layer film spots were prepared using an otherwise similar gelatin binder medium. The bottom layer of these spots contained reduced pararosaniline (PRA) in all instances except sample 7 wherein the oxidized PRA was substituted to illustrate the coloration of that constituent. An ascorbate salt was selected as typical of a benign test chemical, while benzo(a)pyrene was selected as a representative known carcinogen. The color behavior of the various samples was observed and identified in the following Table 3 together with the compositions of the samples tested."}, "rat liver microsomes [6]": {"test_system": "rat liver microsomes", "test": "Detection of benzo(a)pyrene on bilayer spot (Example 3)", "type": "biochemical", "settings": "0.05 mL of 0.5 mg/mL solution on spot", "procedure": "Two spots were prepared by manual streaking on a glass plate. The bottom layer of each spot consisted of 0.15 mL of a 4 mg/mL porcine 300 Bloom gelatin solution containing 1.2 mg/mL pararosaniline (PRA) reduced with solid sodium metabisulfite, spread over an area of 1100-1500 mm^2. After drying in air for two hours, the second layer, containing the following materials, was deposited. 0.05 mL of fresh rat liver microsomes containing approximately 62 mg/mL protein was added to 0.30 mL of a sodium phosphate buffer solution (pH=7.4) containing 4 mg/mL porcine 300 Bloom gelatin, and admixed with 0.02 mL of a solution containing 3 mM MgCl2, 50 mM tris(hydroxymethyl-)aminomethane buffer (pH=7.4) and 15 mM KCl. To this solution was added 10.5 mg solid reduced nicotinamide adenine dinucleotide phosphate (NADPH). 0.25 mL of this material was deposited over an area of 1300-1700 mm^2, completely covering the bottom layer, and was air dried for two hours. […] Within less than five minutes, violet color began to appear, and was well developed within twenty minutes."}, "microsomes": {"test_system": "microsomes", "test": "Activity of microsome-containing layers after four day time lapse (Example 4)", "type": "biochemical", "procedure": "At least five spots were prepared on a glass plate according to the procedure in Example 2 above, and dried in air. The spots were translucent but generally colorless during the first day. […] On the third day, two of the remaining spots were \"recharged\" by a new layer containing fresh NADPH in gelatin. After drying, both spots were essentially colorless. […] Thus, the oxidative activity of microsomes dispersed in gelatin layers persists strongly for at least three days."}, "[7]": {"settings": "literature (Kemula and Axt); cited from earlier work"}, "[8]": {"test": "Oxidation-reduction potentials and redox mediation of dyes and reagents", "type": "physicochemical", "excerpt": "Diphenylmethane and triphenylmethane dyes of the present invention have midpoint oxidation-reduction (\"redox\") potentials (\"Em7 \") apparently more negative than the Em7 value for NADPH or cytochrome P450 isozymes. […] Specific examples include pararosaniline (E1/2 =-0.75 V) and malachite green (E1/2 =-0.55 V) (W. Kemula and A. Axt (1969) op cit; Also H. O. Willard, L. L. Merritt, and J. A. Dean (1965) Instrumental Methods of Analysis, 4th Ed., pp. 682-685 and 760-763, for a comparison of E1/2 versus Em7. These potentials are too negative for direct measurement in water, as Em7 =-0.42 V for water breakdown to hydrogen.), both of which respond with color development upon microsomal metabolic activation.\nMethylene blue is a rapidly mediating redox indicator, and as such is conventionally used for standardization of electrodes and electrochemical systems used in redox potentiometry. Systems containing ascorbate were therefore tightly clamped at a redox potential of +10 to +20 mV, regardless of any interfering influences such as oxygen. […] Spectrum \"mb\" is that of pure methylene blue in its oxidized state. Curve \"oxid\" is the spectrum of a mixed solution of methylene blue as in curve \"mb\" plus the fully oxidized pararosaniline. […]"}}}
{"smiles": "c1ccc2c(c1)cc1ccc3cccc4ccc2c1c34", "note": "[Benzo(a)pyrene]", "values": [{"measurement": "Detector Response, threshold dose", "setting": "rat liver microsomes [1]", "value": 0.01}, {"measurement": "Invention Response", "setting": "rat liver microsomes [2]", "value": "Positive"}, {"measurement": "Carcinogenic Status", "setting": "[3]", "value": "Positive"}, {"measurement": "Tumorigen Activity", "setting": "[3]", "value": "+"}, {"measurement": "Teratogen Activity", "setting": "[4]", "value": "+"}, {"measurement": "COLOR REACTION", "setting": "rat liver microsomes [5]; no microsomes, no NADPH, bottom PRA-reduced (samples 5, 6)", "value": "No"}, {"measurement": "COLOR REACTION", "setting": "rat liver microsomes [5]; top layer with rat liver microsomes and NADPH, bottom PRA-reduced (sample 4)", "value": "Yes"}, {"measurement": "Time until violet color began to appear", "setting": "rat liver microsomes [6]", "value": "less than five"}, {"measurement": "Time until violet color well developed", "setting": "rat liver microsomes [6]", "value": "twenty"}, {"measurement": "Color developed on spot", "setting": "microsomes; fourth day, NADPH-recharged spot", "value": "strong violet color"}, {"measurement": "Color developed on spot", "setting": "microsomes; fourth day, not recharged", "value": "strong violet color"}, {"measurement": "Color developed on spot", "setting": "microsomes; second day, not recharged", "value": "strong violet color"}, {"measurement": "Color developed on spot", "setting": "microsomes; third day, recharged with fresh NADPH", "value": "deep purple color"}]}
{"smiles": "N=C1C=CC(=C(c2ccc(N)cc2)c2ccc(N)cc2)C=C1", "note": "[pararosaniline]", "values": [{"measurement": "E1/2", "setting": "[7]", "value": -0.75, "unit": "V"}, {"measurement": "standard oxidation-reduction potential (Em7)", "setting": "[8]; aqueous media, from FIG. 1 data", "value": "< -0.1", "unit": "V"}, {"measurement": "Time to equilibrate in a redox voltage-clamped system", "setting": "[8]; ascorbate / methylene blue clamped system", "value": "two"}]}
